Measurements from US8802597B2, “Herbicidal pyrimidines” (E I du Pont de Nemours and Company, priority 2003, dated 2014).
Where two headings read alike, the source gives them in different places.

Experiments:
Test in all cases: Test C pre/postemergence
Assay type in all cases: in vivo
[1] = test system: common ragweed (Ambrosia elatior); conditions: for Plant response rating, Ragweed: Preemergence, scale 0 to 100, 0 no effect, 100 complete control
In short: (§1)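 Greenhouse herbicide screen, visual readout. Compound in solvent/surfactant applied preemergence at planting or postemergence to 1- to 4-leaf plants; assessed at 12–14 days on a 0–100 control scale.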

[2] = test system: cocklebur (Xanthium strumarium); conditions: for Plant response rating, Cocklebur: Preemergence
In short: as §1

[3] = test system: common (oilseed) sunflower (Helianthus annuus); conditions: Preemergence, scale 0 to 100, 0 no effect, 100 complete control
In short: as §1

[4] = test system: eastern black nightshade (Solanum ptycanthum); conditions: Preemergence, scale 0 to 100, 0 no effect, 100 complete control
In short: as §1

[5] = test system: Surinam grass (Brachiaria decumbens); conditions: for pest or weed control at 16 g/ha: 16 g ai/ha
In short: as §1

kochia (Kochia scoparia) = conditions: for pest or weed control at 31 g/ha: 31 g ai/ha
In short: as §1

[6] = test system: pigweed (Amaranthus retroflexus); conditions: for pest or weed control at 16 g/ha: 16 g ai/ha
In short: as §1

[7] = Preemergence, 31 g ai/ha, scale 0 to 100, 0 no effect, 100 complete control
[8] = Preemergence, 62 g ai/ha, scale 0 to 100, 0 no effect, 100 complete control

For Nc1nc(C2CC2)nc(C(=O)O)c1Cl [Compound 135, 6-amino-5-chloro-2-cyclopropyl-4-pyrimidinecarboxylic acid], the pest or weed control at 62 g/ha ([1]; Ambrosia artemisiifolia, post-emergence, Postemergence, 62 g ai/ha, read-out: Plant response rating (scale of 0 to 100), Ragweed) was 85%, the pest or weed control at 125 g/ha ([1]; Ambrosia artemisiifolia, post-emergence, Postemergence, 125 g ai/ha, scale 0 to 100 (0 no effect, 100 complete control), read-out: Ragweed plant response rating) was 95% and the “Plant response rating, Ragweed” value ([1]; 16 g ai/ha) was 5. The “Plant response rating, Ragweed” value ([1]; 62 g ai/ha) was 35, the “Plant response rating, Ragweed” value [1] was 70 and the “Plant response rating, Cocklebur” value ([2]; 16 g ai/ha, scale 0 to 100, 0 no effect, 100 complete control) was 85. The “Plant response rating, Cocklebur” value ([2]; 31 g ai/ha, scale 0 to 100, 0 no effect, 100 complete control) was 95, the “Plant response rating, Cocklebur” value ([2]; 62 g ai/ha, scale 0 to 100, 0 no effect, 100 complete control) was 95 and the “Plant response rating, Cocklebur” value ([2]; 125 g ai/ha, scale 0 to 100) was 100. It also gave a pest or weed control at 16 g/ha ([2]; Xanthium strumarium, post-emergence, Postemergence, 16 g ai/ha, read-out: Plant response rating (scale of 0 to 100), Cocklebur) of 90%, a pest or weed control at 31 g/ha ([2]; Xanthium strumarium, post-emergence, Postemergence, 31 g ai/ha, read-out: Plant response rating (scale of 0 to 100), Cocklebur) of 100% and a pest or weed control at 125 g/ha ([2]; Xanthium strumarium, post-emergence, Postemergence, 125 g ai/ha, scale 0 to 100 (0 no effect, 100 complete control), read-out: Cocklebur plant response rating) of 100%. For the same compound, the “Plant response rating, Sunflower” value ([3]; 16 g ai/ha) was 65, the “Plant response rating, Sunflower” value ([3]; 31 g ai/ha) was 70 and the “Plant response rating, Sunflower” value ([3]; 62 g ai/ha) was 90. For the same compound, the “Plant response rating, Nightshade” value ([4]; 31 g ai/ha) was 30, the “Plant response rating, Nightshade” value ([4]; 62 g ai/ha) was 35 and the “Plant response rating, Nightshade” value [4] was 50. For the same compound, the pest or weed control at 16 g/ha ([4]; Solanum, pre-emergence, 16 g ai/ha, read-out: Plant response rating, Nightshade) was 0%, the “Plant response rating, Surinam Grass” value [5, 7] was 0 and the “Plant response rating, Surinam Grass” value [5, 8] was 0. The pest or weed control at 125 g/ha ([5]; Urochloa decumbens, post-emergence, Postemergence, 125 g ai/ha, scale 0 to 100 (0 no effect, 100 complete control), read-out: Surinam Grass plant response rating) was 60%, the pest or weed control at 16 g/ha ([5]; Urochloa decumbens, post-emergence, Postemergence, read-out: Plant response rating (scale of 0 to 100), Surinam Grass) was 45% and the pest or weed control at 31 g/ha ([5]; Urochloa decumbens, post-emergence, Postemergence, 31 g ai/ha, read-out: Plant response rating (scale of 0 to 100), Surinam Grass) was 50%. It also gave a pest or weed control at 62 g/ha ([5]; Urochloa decumbens, post-emergence, Postemergence, 62 g ai/ha, read-out: Plant response rating (scale of 0 to 100), Surinam Grass) of 60%, a pest or weed control at 16 g/ha ([5]; Urochloa decumbens, pre-emergence, Preemergence, scale 0 to 100, 0 no effect, 100 complete control, read-out: Plant response rating, Surinam Grass) of 0% and a pest or weed control at 16 g/ha (kochia (Kochia scoparia); Bassia scoparia, post-emergence, Postemergence, 16 g ai/ha, read-out: Plant response rating (scale of 0 to 100), Kochia) of 75%. It also gave a pest or weed control at 31 g/ha (kochia (Kochia scoparia); Bassia scoparia, post-emergence, Postemergence, read-out: Plant response rating (scale of 0 to 100), Kochia) of 90%, a pest or weed control at 62 g/ha (kochia (Kochia scoparia); Bassia scoparia, post-emergence, Postemergence, 62 g ai/ha, read-out: Plant response rating (scale of 0 to 100), Kochia) of 90% and a pest or weed control at 125 g/ha (kochia (Kochia scoparia); Bassia scoparia, post-emergence, Postemergence, 125 g ai/ha, scale 0 to 100 (0 no effect, 100 complete control), read-out: Kochia plant response rating) of 95%. For the same compound, the pest or weed control at 31 g/ha (kochia (Kochia scoparia); Bassia scoparia, pre-emergence, Preemergence, scale 0 to 100, 0 no effect, 100 complete control, read-out: Plant response rating, Kochia) was 75%, the “Plant response rating, Kochia” value (kochia (Kochia scoparia); Preemergence, 16 g ai/ha, scale 0 to 100, 0 no effect, 100 complete control) was 60 and the “Plant response rating, Kochia” value (kochia (Kochia scoparia); [8]) was 75. The “Plant response rating, Kochia” value (kochia (Kochia scoparia); Preemergence, 125 g ai/ha, scale 0 to 100) was 100, the pest or weed control at 16 g/ha ([6]; Amaranthus retroflexus, post-emergence, Postemergence, read-out: Plant response rating (scale of 0 to 100), Pigweed) was 85% and the pest or weed control at 31 g/ha ([6]; Amaranthus retroflexus, post-emergence, Postemergence, 31 g ai/ha, read-out: Plant response rating (scale of 0 to 100), Pigweed) was 95%. It also gave a pest or weed control at 62 g/ha ([6]; Amaranthus retroflexus, post-emergence, Postemergence, 62 g ai/ha, read-out: Plant response rating (scale of 0 to 100), Pigweed) of 100%, a pest or weed control at 125 g/ha ([6]; Amaranthus retroflexus, post-emergence, Postemergence, 125 g ai/ha, scale 0 to 100 (0 no effect, 100 complete control), read-out: Pigweed plant response rating) of 100% and a pest or weed control at 16 g/ha ([6]; Amaranthus retroflexus, pre-emergence, Preemergence, scale 0 to 100, 0 no effect, 100 complete control, read-out: Plant response rating, Pigweed) of 70%. For the same compound, the “Plant response rating, Pigweed” value [6, 7] was 70 and the “Plant response rating, Pigweed” value [6, 8] was 80.
